From patent US9365523B2, “Imidazolyl amide compounds and uses related thereto” (priority 2011, dated 2016) come the findings set out here.

For one assay, the system named is MeV-Alaska. The assay can be described thus: Antiviral activity of compound analogs against MeV-Alaska (tables 1-5). It is filed as cell-based, measles virus. To be noted: Measles morbillivirus; Table 5.
For `COc1ccc(-n2c(S(=O)(=O)C(C)C(=O)Nc3ccc(C)cc3Cl)nc3ccccc32)cc1` (centres unmarked) [Compound 150], the EC50 is > 150 µM.
Still for that read-out and setting: next, `COc1ccc(-n2c(SC(C)C(=O)N3CCCCC3)nc3ccccc32)cc1` (centres unmarked) [Compound 124]: > 75 µM; `COc1ccc(-n2c(CCC(=O)Nc3ncc(C)cc3Cl)nc3ccccc32)cc1` [Compound 135]: > 75 µM.
As for `CCOC(=O)c1ccc2[nH]c(SC(C)C(=O)Nc3ncc(C)cc3Cl)nc2c1` (centres unmarked) [Compound 164], the EC50 is > 75 µM.
The same measure, in the same setting: under `C#CCn1c(SC(C)C(=O)Nc2ccc(C)cc2Cl)nc(-c2ccccc2)c1-c1ccccc1` (centres unmarked) [Compound 153] stands > 75 µM.
For `Cc1ccc(NC(=O)CSc2nc(-c3ccccc3)c(-c3ccccc3)n2Cc2ccc(F)cc2)c(Cl)c1` [Compound 168], the concentration for a half-maximal effect (EC50) was > 75 µM.
On the same count and under the same terms, under `Cc1ccc(NC(=O)C(C)Sc2cc3ccccc3n2-c2ccccc2)c(Cl)c1` (centres unmarked) [Compound 173] stands > 9.3 µM; under `COc1ccc(-n2c(S(=O)(=O)CC(=O)Nc3ccc(C)cc3Cl)nc3ccccc32)cc1` [Compound 141], > 75 µM; under `Cc1ccc(-n2c(SC(C)(C)C(=O)Nc3ccc(C)cc3Cl)nc3ccccc32)cc1` [Compound 145], > 75 µM.
On the same count and under the same terms, next, `COc1ccc(-n2c([S+]([O-])CC(=O)Nc3ccc(C)cc3Cl)nc3ccccc32)cc1` (centres unmarked) [Compound 165]: 4.2 µM; `Cc1ccc(NC(=O)CSc2nc3cc(C)c(C)cc3n2Cc2ccc(F)cc2)c(Cl)c1` [Compound 144]: > 75 µM.
With `COc1ccc(Cn2c(CC(C)NC(=O)c3ccc(Cl)cc3Cl)nc3ccccc32)cc1` (centres unmarked) [Compound 136], the EC50 was > 75 µM.
On the same count and under the same terms, next, `Cc1ccc(NC(=O)C(C)Sc2nc3ccccc3o2)c(Cl)c1` (centres unmarked) [Compound 151]: > 75 µM.
On the same count and under the same terms, under `Cc1ccc(NC(=O)C(C)Sc2nc3ccccc3s2)c(Cl)c1` (centres unmarked) [Compound 130] stands > 75 µM.

The same assay, now with this note: Table 1.
Consider `COc1ccc(-n2c(SC(C)C(=O)Nc3ccc(NC(C)=O)c(C)c3)nc3ccccc32)cc1` (centres unmarked) [Compound 17], for which the EC50 is > 9.3 µM.
Same read-out and setting: under `COc1ccc(-n2c(SC(C)C(=O)Nc3ccc(Cl)cn3)nc3ccccc32)cc1` (centres unmarked) [Compound 38] stands 11.5 µM; under `COc1ccc(-n2c(SC(C)C(=O)Nc3ncc(C(F)(F)F)cc3Cl)nc3ccccc32)cc1` (centres unmarked) [Compound 3], 0.4 µM; under `COc1ccc(-n2c(SC(C)C(=O)Nc3nc(C)c(Br)cc3Br)nc3ccccc32)cc1` (centres unmarked) [Compound 41], 0.5 µM.
The same measure, in the same setting: under `COc1ccc(-n2c(SC(C)C(=O)Nc3ccc(C)cc3F)nc3ccccc32)cc1` (centres unmarked) [Compound 31] stands 0.2 µM.
The same measure, in the same setting: under `COc1ccc(-n2c(SC(C)C(=O)Nc3ccc(C)cc3)nc3ccccc32)cc1` (centres unmarked) [Compound 49] stands 0.7 µM.
`COc1ccc(-n2c(SC(C)C(=O)Nc3cccc(C)c3)nc3ccccc32)cc1` (centres unmarked) [Compound 10] displayed an EC50 of 0.3 µM.
Still for that read-out and setting: under `COc1ccc(-n2c(SC(C)C(=O)Nc3nc(C)nc(C)c3Cl)nc3ccccc32)cc1` (centres unmarked) [Compound 30] stands > 75 µM; under `COc1ccc(-n2c(SC(C)C(=O)Nc3nnc(C)c(C)n3)nc3ccccc32)cc1` (centres unmarked) [Compound 6], 16.6 µM.
For `COc1ccc(-n2c(SC(C)C(=O)Nc3ccc(C)cc3C)nc3ccccc32)cc1` (centres unmarked) [Compound 45], it took 1.1 µM to reach a half-maximal effect (EC50).
Same read-out and setting: under `COc1ccc(-n2c(SC(C)C(=O)Nc3ncc(C)s3)nc3ccccc32)cc1` (centres unmarked) [Compound 53] stands > 150 µM; under `COc1ccc(-n2c(SC(C)C(=O)Nc3ccccc3)nc3ccccc32)cc1` (centres unmarked) [Compound 25], 0.9 µM; under `COc1ccc(-n2c(SC(C)C(=O)Nc3c(Cl)cccc3Cl)nc3ccccc32)cc1` (centres unmarked) [Compound 28], 2 µM.
On the same count and under the same terms, under `COc1ccc(-n2c(SC(C)C(=O)Nc3ccccc3C)nc3ccccc32)cc1` (centres unmarked) [Compound 15] stands 1.14 µM.
Still for that read-out and setting: next, `COc1ccc(-n2c(SC(C)C(=O)Nc3cccc(Cl)c3)nc3ccccc32)cc1` (centres unmarked) [Compound 14]: 0.5 µM; `COc1ccc(-n2c(SC(C)C(=O)Nc3ncccn3)nc3ccccc32)cc1` (centres unmarked) [Compound 29]: 2 µM; `COc1ccc(-n2c(SC(C)C(=O)Nc3ncc(C)cc3Cl)nc3ccccc32)cc1` (centres unmarked) [Compound 5]: 0.04 µM.

The assay is the same for the next values; noted with them: Table 2.
On to `Cc1ccc(NC(=O)C(C)Sc2nc3ccccc3n2C2CCNCC2)c(Cl)c1` (centres unmarked) [Compound 92], for which the EC50 was > 75 µM.
Compound `Cc1ccc(NC(=O)C(C)Sc2nc3ccccc3n2-c2ccc(N3CCN(C)CC3)cc2)c(Cl)c1` (centres unmarked) [Compound 70] came in with an EC50 of 2 µM.
The same measure, in the same setting: under `Cc1ccc(NC(=O)C(C)Sc2nc3ccccc3n2-c2ccccc2CN2CCN(C)CC2)c(Cl)c1` (centres unmarked) [Compound 67] stands 0.18 µM; under `Cc1ccc(NC(=O)C(C)Sc2nc3ccccc3n2-c2ccccc2CN2CCOCC2)c(Cl)c1` (centres unmarked) [Compound 79], 0.3 µM.
Still for that read-out and setting: next, `Cc1ccc(NC(=O)C(C)Sc2nc3ccccc3n2C(=O)c2ccccc2)c(Cl)c1` (centres unmarked) [Compound 91]: > 9.3 µM.
On the same count and under the same terms, next, `Cc1ccc(NC(=O)C(C)Sc2nc3ccccc3n2-c2ccc(CO)cc2)c(Cl)c1` (centres unmarked) [Compound 81]: 3.91 µM; `Cc1ccc(NC(=O)C(C)Sc2nc3ccccc3n2-c2cccc(CN3CCN(C)CC3)c2)c(Cl)c1` (centres unmarked) [Compound 65]: 1.3 µM.
Regarding `COC(=O)c1ccc(-n2c(SC(C)C(=O)Nc3ccc(C)cc3Cl)nc3ccccc32)cc1` (centres unmarked) [Compound 99], the response was half-maximal at 1.1 µM (EC50).
Same read-out and setting: next, `Cc1ccc(NC(=O)C(C)Sc2nc3ccccc3n2-c2ccc(N=[N+]=[N-])cc2)c(Cl)c1` (centres unmarked) [Compound 95]: 0.31 µM; `Cc1ccc(NC(=O)C(C)Sc2nc3ccccc3n2-c2ccc(CN3CCN(C)CC3)cc2)c(Cl)c1` (centres unmarked) [Compound 63]: 4.9 µM; `Cc1ccc(NC(=O)C(C)Sc2nc3ccccc3n2-c2ccc(CN3CCOCC3)cc2)c(Cl)c1` (centres unmarked) [Compound 56]: 0.32 µM.
Still for that read-out and setting: next, `COc1cc(OC)cc(-n2c(SC(C)C(=O)Nc3ccc(C)cc3Cl)nc3ccccc32)c1` (centres unmarked) [Compound 87]: 0.4 µM.
As to `Cc1ccc(NC(=O)C(C)Sc2nc3ccccc3n2S(=O)(=O)c2ccccc2)c(Cl)c1` (centres unmarked) [Compound 90], a half-maximal response (EC50) required 0.04 µM. Against the preceding compound, the EC50 is about 10-fold lower.
On the same count and under the same terms, next, `Cc1ccc(NC(=O)C(C)Sc2nc3ccccc3n2-c2ccc(OCC(=O)O)cc2)c(Cl)c1` (centres unmarked) [Compound 68]: > 9.3 µM.
On the same count and under the same terms, under `COc1ccc(-n2c(SC(C)C(=O)Nc3ccc(C)cc3Cl)nc3ccccc32)cc1` (centres unmarked) [Compound 86] stands 0.17 µM.

The same assay, now with this note: Table 3.
Turning to `CCOc1ccc(-n2c(SC(C)C(=O)Nc3ccc([N+](=O)[O-])cc3C)nc3ccccc32)cc1` (centres unmarked) [Compound 110], the EC50 is > 9.3 µM.
On the same count and under the same terms, under `CC(Sc1nc2ccccc2n1-c1ccc(F)cc1)C(=O)Nc1ncc(Cl)cc1Cl` (centres unmarked) [Compound 101] stands 0.3 µM; under `CC(Sc1nc2ccccc2n1Cc1ccccc1)C(=O)Nc1ncc(Cl)cc1Cl` (centres unmarked) [Compound 111], 4.9 µM.
The same measure, in the same setting: next, `COc1cccc(-n2c(SC(C)C(=O)Nc3ncc(C)cc3Cl)nc3ccccc32)c1` (centres unmarked) [Compound 108]: 0.4 µM; `Cc1nnc(NC(=O)C(C)Sc2nc3ccccc3n2-c2ccc(F)cc2)nc1C` (centres unmarked) [Compound 106]: 23 µM.
Still for that read-out and setting: next, `COc1ccc(Cn2c(SC(C)C(=O)Nc3ccc(Cl)cc3Cl)nc3ccccc32)cc1` (centres unmarked) [Compound 117]: 1.7 µM.
Consider `COc1ccc(Cn2c(SC(C)C(=O)Nc3ncc(C)cc3Cl)nc3ccccc32)cc1` (centres unmarked) [Compound 107], for which the midpoint of the response, the EC50, lay at 0.8 µM.
